These results are taken from US12552772B2, “2-pyrazole anilines and related analogs for inhibiting YAP/TAZ-TEAD” (KATHOLIEKE UNIVERSITEIT LEUVEN, priority 2021, dated 2026).

The test system of this experiment is YAP/TAZ-TEAD transcription. Briefly: Reporter gene assay for measuring the inhibition of YAP/TAZ-TEAD transcription (TEAD-responsive element luciferase reporter in Hek293T cells). The note with it: Homo sapiens, HEK-293T, 24 hours incubation. It is filed as cell-based. The gist of the method:
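Percent inhibition, scaled between vehicle (0%) and a positive control inhibitor (100%), came from SteadyLite luciferase signal after 24 h compound exposure at 37 °C/5% CO2. Cells: Hek293T transiently carrying a TEAD-responsive luciferase reporter; EC50 derived.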
A general note: Reporter assays use an easily measured gene product as a stand-in for the process of interest.
Broadly, the EC50 is the concentration at which the effect is half-maximal. Lower therefore signals a more potent agent. For the molecule `C=CC(=O)NCc1ccc(-c2ccc(F)cc2)cc1-c1ccn(CC(C)C)n1` [compound 152, N-((4′-fluoro-3-(1-isobutyl-1H-pyrazol-3-yl)-[1,1′-biphenyl]-4-yl)methyl)acrylamide], the EC50 was less than 1 µM.

`C=CC(=O)NCc1ccc(-c2ccc(F)cc2)cc1-c1ccn(C2COC2)n1` [compound 154, N-((4′-fluoro-3-(1-(oxetan-3-yl)-1H-pyrazol-3-yl)-[1,1′-biphenyl]-4-yl)methyl)acrylamide] gave an EC50 of less than 1 µM.

With `C=CC(=O)NCc1ccc(-c2ccc(F)cc2)cc1-c1ccn(CCOC(F)(F)F)n1` [compound 155, N-((4′-fluoro-3-(1-(2-(trifluoromethoxy)ethyl)-1H-pyrazol-3-yl)-[1,1′-biphenyl]-4-yl)methyl)acrylamide], the EC50 lay in the range of 1 to 20 µM.

Consider `C=CC(=O)NCc1ccc(-c2ccc(C(F)(F)F)cc2)cc1-c1ccn(CCOC)n1` [compound 156, N-((3-(1-(2-methoxyethyl)-1H-pyrazol-3-yl)-4′-(trifluoromethyl)-[1,1′-biphenyl]-4-yl)methyl)acrylamide], for which the EC50 was less than 1 µM.

In turn, `C=CC(=O)NCc1ccc(-c2ccc(Cl)cc2)cc1-c1ccn(C2CC2)n1` [compound 158, N-((4′-chloro-3-(1-cyclopropyl-1H-pyrazol-3-yl)-[1,1′-biphenyl]-4-yl)methyl)acrylamide] showed an EC50 of less than 1 µM.

Molecule `C=CC(=O)NCc1ccc(-c2ccc(F)cc2)cc1-c1ccn(CC2COC2)n1` [compound 159, N-((4′-fluoro-3-(1-(oxetan-3-ylmethyl)-1H-pyrazol-3-yl)-[1,1′-biphenyl]-4-yl)methyl)acrylamide] gave an EC50 of less than 1 µM.

Turning to `C=CC(=O)NCc1ccc(-c2ccc(F)cc2)cc1-c1ccn(CC(F)(F)F)n1` [compound 160, N-((4′-fluoro-3-(1-(2,2,2-trifluoroethyl)-1H-pyrazol-3-yl)-[1,1′-biphenyl]-4-yl)methyl)acrylamide], the EC50 was less than 1 µM.

Regarding `C=CC(=O)NCc1ccc(-c2ccc(F)cc2)cc1-c1ccnn1C` [compound 163, N-((4′-fluoro-3-(1-methyl-1H-pyrazol-5-yl)-[1,1′-biphenyl]-4-yl)methyl)acrylamide], the EC50 was more than 20 µM.

With `C=CC(=O)NCc1ccc(-c2ccc(F)cc2)cc1-c1cccnc1` [compound 164, N-((4′-fluoro-3-(pyridin-3-yl)-[1,1′-biphenyl]-4-yl)methyl)acrylamide], the EC50 is less than 1 µM.

On to `C=CC(=O)NCc1ccc(-c2ccc(C(F)(F)F)cc2)cc1-c1cnn(C2CC2)c1` [compound 168, N-((3-(1-cyclopropyl-1H-pyrazol-4-yl)-4′-(trifluoromethyl)-[1,1′-biphenyl]-4-yl)methyl)acrylamide], for which the EC50 was less than 1 µM.

On to `C=CC(=O)NCc1ccc(-c2ccc(F)cc2)cc1-c1ccnn1C(F)F` [compound 171, N-((3-(1-(difluoromethyl)-1H-pyrazol-5-yl)-4′-fluoro-[1,1′-biphenyl]-4-yl)methyl)acrylamide], for which the EC50 was 1 to 20 µM.

As to `C=CC(=O)NCc1ccc(-c2ccc(C(F)(F)F)cc2)cc1-c1cnn(C(F)F)c1` [compound 173, N-((3-(1-(difluoromethyl)-1H-pyrazol-4-yl)-4′-(trifluoromethyl)-[1,1′-biphenyl]-4-yl)methyl)acrylamide], the EC50 is less than 1 µM.

As for `C=CC(=O)NCc1ccc(-c2ccc(F)cc2)cc1-c1ccn(C2(C)CC2)n1` [compound 175, N-((4′-fluoro-3-(1-(1-methylcyclopropyl)-1H-pyrazol-3-yl)-[1,1′-biphenyl]-4-yl)methyl)acrylamide], the EC50 was less than 1 µM.

The molecule `C=CC(=O)NCc1ccc([C@H]2CC[C@H](C(F)(F)F)CC2)cc1-c1ccn(C)n1` [compound 178, trans-N-(2-(1-methyl-1H-pyrazol-3-yl)-4-(4-(trifluoromethyl)cyclohexyl)benzyl)acrylamide] displayed an EC50 of less than 1 µM.

As for `C=CC(=O)NCc1ccc(N2CCC(C(F)(F)F)CC2)cc1-c1ccn(C)n1` [compound 181, N-(2-(1-methyl-1H-pyrazol-3-yl)-4-(4-(trifluoromethyl)piperidin-1-yl)benzyl)acrylamide], the EC50 was less than 1 µM.

`C=CC(=O)NCc1ccc(-c2ccc(F)cc2)cc1C1CCN(C)C1` (stereo not drawn) [compound 183, N-((4′-fluoro-3-(1-methylpyrrolidin-3-yl)-[1,1′-biphenyl]-4-yl)methyl)acrylamide] registered an EC50 of 1 to 20 µM.

Molecule `C=CC(=O)NCc1ccc(-c2ccc(F)cc2)cc1-c1cnn(C(F)F)n1` [compound 186, N-((3-(2-(difluoromethyl)-2H-1,2,3-triazol-4-yl)-4′-fluoro-[1,1′-biphenyl]-4-yl)methyl)acrylamide] registered an EC50 of less than 1 µM.

For the molecule `C=CC(=O)NCc1ccc(-c2ccc(F)cc2)cc1-c1nnnn1C` [compound 189, N-((4′-fluoro-3-(1-methyl-1H-tetrazol-5-yl)-[1,1′-biphenyl]-4-yl)methyl)acrylamide], the EC50 is 1 to 20 µM.

With `C=CC(=O)NCc1ccc(-c2ccc(F)cc2)cc1-n1ccnn1` [compound 191, N-((4′-fluoro-3-(1H-1,2,3-triazol-1-yl)-[1,1′-biphenyl]-4-yl)methyl)acrylamide], the EC50 was less than 1 µM.

In turn, `C=CC(=O)NCc1c(F)cc(-c2ccc(C(F)(F)F)cc2)cc1-c1ccn(C)n1` [compound 192, N-((3-fluoro-5-(1-methyl-1H-pyrazol-3-yl)-4′-(trifluoromethyl)-[1,1′-biphenyl]-4-yl)methyl)acrylamide] came in with an EC50 of less than 1 µM.

In turn, `C=CC(=O)NCc1ccc(-c2ccc(F)cc2)nc1-c1ccn(CC2CC2)n1` [compound 195, N-((2-(1-(cyclopropylmethyl)-1H-pyrazol-3-yl)-6-(4-fluorophenyl)pyridin-3-yl)methyl)acrylamide] came in with an EC50 of less than 1 µM.

`C=CC(=O)NCc1ccc(-c2ccc(F)cc2)nc1-c1ccn(C2CC2)n1` [compound 196, N-((2-(1-cyclopropyl-1H-pyrazol-3-yl)-6-(4-fluorophenyl)pyridin-3-yl)methyl)acrylamide] gave a half-maximal effective concentration (EC50) of less than 1 µM.

As for `C=CC(=O)NCc1ccc(-c2ccc(F)cc2)nc1-c1ccnn1C1CC1` [compound 197, N-((2-(1-cyclopropyl-1H-pyrazol-5-yl)-6-(4-fluorophenyl)pyridin-3-yl)methyl)acrylamide], the EC50 was 1 to 20 µM.

As to `C=CC(=O)NCc1ccc(-c2ccc(F)cc2)nc1-c1nnn(C(F)F)n1` [compound 199, N-((2-(2-(difluoromethyl)-2H-tetrazol-5-yl)-6-(4-fluorophenyl)pyridin-3-yl)methyl)acrylamide], the EC50 was less than 1 µM.

`C=CC(=O)NCc1ccc(-c2ccc(F)cc2)nc1-c1nn[nH]n1` [compound 200, N-((6-(4-fluorophenyl)-2-(2H-tetrazol-5-yl)pyridin-3-yl)methyl)acrylamide] displayed an EC50 of more than 20 µM.

The molecule `C=CC(=O)NCc1ncc(-c2ccc(F)cc2)cc1-c1nnn(C(F)F)n1` [compound 204, N-((3-(2-(difluoromethyl)-2H-tetrazol-5-yl)-5-(4-fluorophenyl)pyridin-2-yl)methyl)acrylamide] yielded an EC50 of less than 1 µM.

`CN(C)C/C=C/C(=O)NCc1cnc(-c2ccc(F)cc2)cc1-c1ccn(C(F)F)n1` [compound 208, (E)-N-((4-(1-(difluoromethyl)-1H-pyrazol-3-yl)-6-(4-fluorophenyl)pyridin-3-yl)methyl)-4-(dimethylamino)but-2-enamide]: the EC50 was more than 20 µM.

As for `C=CC(=O)NCc1cnc(-c2ccc(C(F)(F)F)cc2)cc1-c1ccn(C(F)F)n1` [compound 209, N-((4-(1-(difluoromethyl)-1H-pyrazol-3-yl)-6-(4-(trifluoromethyl)phenyl)pyridin-3-yl)methyl)acrylamide], the EC50 was less than 1 µM.

Take `C=CC(=O)NCc1cnc(-c2ccc(Cl)cc2)cc1-c1ccn(C(F)F)n1` [compound 210, N-((6-(4-chlorophenyl)-4-(1-(difluoromethyl)-1H-pyrazol-3-yl)pyridin-3-yl)methyl)acrylamide]: the EC50 is less than 1 µM.

With `CCC(=O)NCc1cnc(-c2cccc(F)c2)cc1-c1ccn(C(F)F)n1` [compound 212, N-((4-(1-(difluoromethyl)-1H-pyrazol-3-yl)-6-(3-fluorophenyl)pyridin-3-yl)methyl)propionamide], the EC50 was in the range of 1 to 20 µM.

`CCC(=O)NCc1cnc(-c2cccc(Cl)c2)cc1-c1ccn(C(F)F)n1` [compound 214, N-((6-(3-chlorophenyl)-4-(1-(difluoromethyl)-1H-pyrazol-3-yl)pyridin-3-yl)methyl)propionamide] had an EC50 of more than 20 µM.

In turn, `CCC(=O)NCc1cnc(-c2cccc(C(F)(F)F)c2)cc1-c1ccn(C(F)F)n1` [compound 216, N-((4-(1-(difluoromethyl)-1H-pyrazol-3-yl)-6-(3-(trifluoromethyl)phenyl)pyridin-3-yl)methyl)propionamide] showed an EC50 of more than 20 µM.

As for `C=CC(=O)NCc1cnc(-c2ccc(C(F)F)cc2)cc1-c1ccn(C(F)F)n1` [compound 217, N-((4-(1-(difluoromethyl)-1H-pyrazol-3-yl)-6-(4-(difluoromethyl)phenyl)pyridin-3-yl)methyl)acrylamide], the half-maximal effective concentration (EC50) is less than 1 µM.

Consider `C=CC(=O)NCc1cc(-c2ccn(C(F)F)n2)cc(-c2ccc(F)cc2)n1` [compound 218, N-((4-(1-(difluoromethyl)-1H-pyrazol-3-yl)-6-(4-fluorophenyl)pyridin-2-yl)methyl)acrylamide], for which the half-maximal effective concentration (EC50) is less than 1 µM.

`C=CC(=O)NCc1cnc(-c2ccc(C#N)cc2)cc1-c1ccn(C(F)F)n1` [compound 219, N-((6-(4-cyanophenyl)-4-(1-(difluoromethyl)-1H-pyrazol-3-yl)pyridin-3-yl)methyl)acrylamide] registered an EC50 of less than 1 µM.

Regarding `C=CC(=O)NCc1cnc(-c2cccc(C#N)c2)cc1-c1ccn(C(F)F)n1` [compound 220, N-((6-(3-cyanophenyl)-4-(1-(difluoromethyl)-1H-pyrazol-3-yl)pyridin-3-yl)methyl)acrylamide], the concentration for a half-maximal effect (EC50) was less than 1 µM.
